In article PMC4674167 (The Journal of organic chemistry, 2015):
Read-outs that look alike come from different tables or passages of the source.

Tests used:
[1] = test system: M. tuberculosis strain H37Rv; format: cell-based, Mycobacterium tuberculosis; conditions: for fold more potent in MIC than the 3′-α-fluoro diastereomer: 14 vs 15, 16 vs 17, M. tuberculosis H37Rv
[2] = rat, in vivo; for i.v. AUC0-inf / i.v. CL / i.v. t1/2: iv, 2.5 mg/kg; for p.o. AUC0-inf / p.o. Cmax: po, 25 mg/kg
[3] = biological target: MbtA (Mycobacterium tuberculosis, UniProt P71716); format: biochemical; conditions: for Ki: read-out: Ki^app, apparent Ki against MbtA; for fold more potent in MbtA inhibition than the 3′-α-fluoro diastereomer: 14 vs 15, 16 vs 17
[4] = Single dose pharmacokinetics in cannulated rats
[5] = rat, in vivo, cited from earlier work; for p.o. AUC0-inf / p.o. Cmax: po, 25 mg/kg

Chain of MbtA (P71716 whole entry): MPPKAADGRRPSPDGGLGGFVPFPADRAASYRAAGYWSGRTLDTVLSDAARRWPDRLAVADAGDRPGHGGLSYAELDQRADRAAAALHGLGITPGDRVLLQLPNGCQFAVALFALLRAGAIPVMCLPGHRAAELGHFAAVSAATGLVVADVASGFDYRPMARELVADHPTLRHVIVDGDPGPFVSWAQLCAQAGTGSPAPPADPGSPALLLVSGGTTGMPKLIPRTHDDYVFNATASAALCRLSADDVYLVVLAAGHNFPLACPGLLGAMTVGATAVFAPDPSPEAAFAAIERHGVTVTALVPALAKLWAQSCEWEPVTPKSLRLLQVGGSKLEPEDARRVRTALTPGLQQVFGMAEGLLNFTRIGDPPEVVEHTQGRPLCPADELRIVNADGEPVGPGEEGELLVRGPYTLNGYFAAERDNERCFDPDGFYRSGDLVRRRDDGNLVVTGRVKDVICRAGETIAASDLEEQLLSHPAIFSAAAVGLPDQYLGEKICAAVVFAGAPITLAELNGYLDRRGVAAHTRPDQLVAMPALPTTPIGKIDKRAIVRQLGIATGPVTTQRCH

| Structure (SMILES) | MIC [1] [µM] | F (relative oral bioavailability) [2] [%] | i.v. AUC0-inf [2] [μg.min.mL^–1] | i.v. CL [2] [mL.min^–1.kg^–1] | i.v. t1/2 [2] [min] | p.o. AUC0-inf [2] [μg.min.mL^–1] | p.o. Cmax [2] [μg.mL^–1] | Ki [3] [nM] | further results |
| --- | --- | --- | --- | --- | --- | --- | --- | --- | --- |
| CCN(CC)CC.Nc1ncnc2c1ncn2[C@@H]1O[C@H](CNS(=O)(=O)NC(=O)c2ccccc2O)[C@@H](F)[C@H]1F [compound 17, 9-[2,3,5-Trideoxy-2,3-difluoro-5-{N-(N-2-hydroxybenzoyl)sulfamoyl}amino-β-D-ribofuranosyl]adenine Triethylammonium Salt] | 37 | 5.3 ± 1.3 | 10100 ± 2200 | 0.24 ± 0.06 | 267 ± 36 | 4730 ± 540 | 5.99 ± 0.56 | 139 ± 10 | fold increase in half-life compared to SAL-AMS (10) [4]: ca. 25 fold; fold higher Cmax compared to SAL-AMS (10) ([4]; p.o. 25 mg/kg): 15 fold; fold increase in F% compared to SAL-AMS (10) ([4]; p.o. 25 mg/kg): fourfold; fold increased oral exposure (oral AUC) compared to SAL-AMS (10) ([4]; p.o. 25 mg/kg): ca. 75 fold |
| CCN(CC)CC.Nc1ncnc2c1ncn2[C@@H]1O[C@H](CNS(=O)(=O)NC(=O)c2ccccc2O)[C@H](F)[C@H]1O [compound 14, 9-[3,5-Dideoxy-3-fluoro-5-{N-(N-2-hydroxybenzoyl)sulfamoyl}amino-β-D-xylofuranosyl]adenine Triethylammonium Salt] | 0.60 | 2.3 ± 0.4 | 366 ± 33 | 6.9 ± 0.3 | 17.4 ± 1.4 | 84 ± 12 | 0.64 ± 0.22 | 0.6 ± 0.3 | fold more potent in MIC than the 3′-α-fluoro diastereomer [1]: fourfold; fold more potent in MbtA inhibition than the 3′-α-fluoro diastereomer [3]: approximately 10 fold |
| CCN(CC)CC.Nc1ncnc2c1ncn2[C@@H]1O[C@H](CNS(=O)(=O)NC(=O)c2ccccc2O)[C@H](F)[C@H]1F [compound 16, 9-[2,3,5-Trideoxy-2,3-difluoro-5-{N-(N-2-hydroxybenzoyl)sulfamoyl}amino-β-D-xylofuranosyl]adenine Triethylammonium Salt] | 0.78 | 11.4 ± 0.3 | 312 ± 54 | 8.5 ± 1.6 | 17.2 ± 1.3 | 362 ± 85 | 0.97 ± 0.42 | 1.4 ± 0.3 | fold more potent in MIC than the 3′-α-fluoro diastereomer [1]: ca. 50 fold; fold more potent in MbtA inhibition than the 3′-α-fluoro diastereomer [3]: ~100 fold |
| Nc1ncnc2c1ncn2[C@@H]1O[C@H](COS(=O)(=O)NC(=O)c2ccccc2O)[C@@H](O)[C@H]1O [compound 10, 5′-O-[N-(salicyl)sulfamoyl]adenosine] | – | – | – | – | – | – | – | – | i.v. AUC0-inf ([5]; iv, 2.5 mg/kg): 519 ± 115 μg.min.mL^–1; i.v. t1/2 ([5]; iv, 2.5 mg/kg): 11.2 ± 2.2 min; p.o. AUC0-inf [5]: 66 ± 41 μg.min.mL^–1; p.o. Cmax [5]: 0.40 ± 0.20 μg.mL^–1; F (relative oral bioavailability) [5]: 1.3 ± 0.7% |
| CCN(CC)CC.Nc1ncnc2c1ncn2[C@@H]1O[C@H](CNS(=O)(=O)NC(=O)c2ccccc2O)[C@@H](O)[C@@H]1F [compound 13, 9-[2,5-Dideoxy-2-fluoro-5-{N-(N-2-hydroxybenzoyl)sulfamoyl}amino-β-D-arabinofuranosyl]adenine Triethylammonium Salt] | 0.15 | 4.7 ± 1.1 | 913 ± 65 | 2.7 ± 0.2 | 31.7 ± 1.9 | 422 ± 70 | 1.09 ± 0.03 | 1.7 to 1.8 | Ki ([3]; listed as C00003): 1.8 ± 0.1 nM |
| CCN(CC)CC.Nc1ncnc2c1ncn2[C@@H]1O[C@H](CNS(=O)(=O)NC(=O)c2ccccc2O)[C@@H](O)[C@H]1F [compound 12, 9-[2,5-Dideoxy-2-fluoro-5-{N-(N-2-hydroxybenzoyl)sulfamoyl}amino-β-D-ribofuranosyl]adenine Triethylammonium Salt] | 0.19 | 1.8 ± 0.9 | 1040 ± 330 | 2.5 ± 0.9 | 32.5 ± 7.4 | 187 ± 11 | 0.46 ± 0.30 | 1.7 to 1.8 | Ki ([3]; listed as C00001): 1.7 ± 0.1 nM |
| Nc1ncnc2c1ncn2[C@@H]1O[C@H](CNS(=O)(=O)NC(=O)c2ccccc2O)[C@@H](O)[C@H]1O [compound 11] | – | – | – | – | – | – | – | – | i.v. AUC0-inf ([5]; iv, 2.5 mg/kg): 304 ± 60 μg.min.mL^–1; i.v. CL ([5]; iv, 2.5 mg/kg): 8.4 ± 1.9 mL.min^–1.kg^–1; i.v. t1/2 ([5]; iv, 2.5 mg/kg): 10.6 ± 0.7 min; p.o. AUC0-inf [5]: 100 ± 14 μg.min.mL^–1; p.o. Cmax [5]: 0.70 ± 0.07 μg.mL^–1; F (relative oral bioavailability) [5]: 3.5 ± 0.2% |
| CCN(CC)CC.Nc1ncnc2c1ncn2[C@@H]1O[C@H](CNS(=O)(=O)NC(=O)c2ccccc2O)[C@@H](F)[C@H]1O [compound 15, 9-[3,5-Dideoxy-3-fluoro-5-{N-(N-2-hydroxybenzoyl)sulfamoyl}amino-β-D-ribofuranosyl]adenine Triethylammonium Salt] | 2.3 | 3.5 ± 0.2 | 807 ± 78 | 3.1 ± 0.3 | 37.0 ± 1.7 | 266 ± 2 | 0.92 ± 0.04 | 6.4 ± 0.3 | – |
